Assay results from patent publication US20240309004A1, “SELECTIVE CYCLIN-DEPENDENT KINASE INHIBITORS AND METHODS OF THERAPEUTIC USE THEREOF” (ViroKyne Therapeutics, LLC, priority 2021, published 2024).

How the values were obtained:
HCMV strain AD169 = assay: HCMV primary assay (CPE), strain AD169, HFF cells; assay type: cell-based, Human Cytomegalovirus; details: Human betaherpesvirus 5, HCMV primary assay, virus strain AD169, HFF cells; for EC50: read-out: EC50; for EC90: read-out: EC90
Procedure: The antiviral activity of the compound against HCMV in the described Primary assay was measured by treating primary Human foreskin fibroblast (HFF) cells infected with HCMV with a range of compound concentrations—description of methods for this assay can be found in section 1.3.2.1. […] . Additional tested assay parameters in this Primary assay can be found in Table 3.2.1 and include EC90, S150, and S190 values—descriptions of those data points can be found in section 3.2.1.

[1] = Cytotoxicity concurrent with HCMV AD169 primary assay; assay type: cell-based, human; details: human, CC50
HSV1 strain E-377 = assay: HSV1 primary assay, strain E-377, HFF cells; assay type: cell-based, Herpes Simplex Virus 1; details: Human alphaherpesvirus 1, HSV1 primary assay, strain E-377, HFF cells; for EC50: read-out: EC50; for EC90: read-out: EC90
Procedure: (§1) Assays were performed in monolayers as described. […] Toxicity was measured using CTG as above. […] Toxicity was measured using CTG as above.
(§2) Monolayers of HFF cells were prepared in six-well plates and incubated at 37° C. for 2 d to allow the cells to reach confluency. Media was then aspirated from the wells and 0.2 mL of virus-containing solution was added to each of three wells to yield 20-30 plaques in each well. The virus was allowed to adsorb to the cells for 1 h and the plates were agitated every 15 minutes. Compounds were diluted in assay media consisting of MEM with Earl's salts supplemented with 2% FBS, glutamine, penicillin, and gentamycin. Diluted drug was added to duplicate wells and the plates were incubated for various times, depending on the virus used. For HSV-1 and -2, the monolayers were then stained with 1% crystal violet in 20% methanol and the unbound dye removed by washing with dH20. For all other assays, the cell monolayer was stained with 1% Neutral Red solution for 4-6 h then the stain was aspirated and the cells were washed with PBS.

[2] = Cytotoxicity concurrent with HSV1 E-377 primary assay; assay type: cell-based; details: human
Procedure: as §1

[3] = Metabolic stability in mice liver microsomes; details: mice liver microsomes, 1 μM compound, 1 mM NADPH, 60 min
Procedure: Potassium phosphate buffer (Kphos) was prepared by adding 0.647 g potassium phosphate monobasic (KH2PO4) and 3.527 g potassium phosphate dibasic (K2HPO4) to 400 mL of Milli-Q water. pH of the buffer was adjusted to 7.4 and volume was made up to 500 mL.
Stock solutions of the test compounds were prepared in DMSO at a concentration of 1 mM.
To this microsomal mix 1.42 μL (1 mM) of test compound and positive control were spiked, from this mix 70 μL was transferred to 96 well plate and pre-incubated at 37° C. for 5 min. […] The plates were centrifuged at 4000 RPM for 15 min and 100 μL aliquots were submitted for analysis by LC-MS/MS.
Samples were monitored for parent compound disappearance in MRM mode using LC-MS/MS. The LC-MS/MS conditions and MRM chromatogram will be provided as per client request.
The peak area ratios of analyte versus internal standard were used to calculate the % remaining at the end of 60 minutes in presence NADPH.

VZV strain Ellen = assay: VZV primary assay, strain Ellen, HFF cells; assay type: cell-based, Varicella Zoster Virus; details: Human alphaherpesvirus 3, VZV primary assay, strain Ellen, cell line HFF; for EC50: read-out: EC50; for EC90: read-out: EC90
Procedure: as §1, §2

[4] = Cytotoxicity concurrent with VZV Ellen primary assay; assay type: cell-based; details: human
Procedure: as §1

HSV2 strain G = assay: HSV2 primary assay, strain G, HFF cells; assay type: cell-based, herpes simplex virus 2; details: Human alphaherpesvirus 2, HSV2 primary assay, strain G, HFF cells; for EC50: read-out: EC50; for EC90: read-out: EC90
Procedure: as §1, §2

[5] = Cytotoxicity concurrent with HSV2 primary assay; assay type: cell-based; details: human
Procedure: as §1

[6] = tested on: Epstein-Barr virus Akata strain; assay: Epstein-Barr primary assay, Akata strain, Akata cells; assay type: cell-based; details: human gammaherpesvirus 4, Epstein-Barr primary assay, Akata strain, Akata cells; for EC50: read-out: EC50; for EC90: read-out: EC90
[7] = tested on: Adenovirus Adenoid75 strain; assay: Adenovirus primary assay, Adenoid75 strain, HFF cells; assay type: cell-based; details: unidentified adenovirus, Adenovirus primary assay, HFF cells, Adenoid75 strain; for EC50: read-out: EC50; for EC90: read-out: EC90
[8] = Cytotoxicity concurrent with Adenovirus primary assay; assay type: cell-based; details: human
[9] = Cytotoxicity concurrent with EBV primary assay; details: human, Akata cells without virus induction

Row | Compound | EC50 (HCMV strain AD169) [µM] | EC90 (HCMV strain AD169) [µM] | CC50 [1] [µM] | EC50 (HSV1 strain E-377) [µM] | EC90 (HSV1 strain E-377) [µM] | CC50 [2] [µM] | % Remaining at 60 min [3] [%] | EC50 (VZV strain Ellen) [µM] | EC90 (VZV strain Ellen) [µM] | CC50 [4] [µM] | EC50 (HSV2 strain G) [µM] | EC90 (HSV2 strain G) [µM] | CC50 [5] [µM] | EC50 [6] [µM] | EC90 [6] [µM] | EC50 [7] [µM] | EC90 [7] [µM] | CC50 [8] [µM] | CC50 at 72 h [9] [µM]
1 | CN(C)CC(=O)N1CCC(Nc2cc3c4ccc(F)cc4nn3cn2)CC1 [VKT-028] | 10 | 10 | 32 | – | – | – | – | – | – | – | – | – | – | – | – | – | – | – | –
2 | CC1CC(Nc2cc3c4ccc(F)cc4nn3cn2)CC(C)O1 (stereo not shown) [VKT-013] | 10 | 10 | 48.1 | – | – | – | – | – | – | – | – | – | – | – | – | – | – | – | –
3 | CC1CC(Nc2cc3c4ccc(F)cc4nn3cn2)CCO1 (stereo not shown) [VKT-011] | 10 | 10 | 38.6 | – | – | – | – | – | – | – | – | – | – | – | – | – | – | – | –
4 | CN(C)C1CCC(Nc2cc3c4ccc(F)cc4nn3cn2)CC1 (stereo not shown) [VKT-007] | – | – | – | 10 | 10 | 16.1 | 54 | – | – | – | – | – | – | – | – | – | – | – | –
5 | CN(c1cc2c3ccc(F)cc3nn2cn1)C1CCC(CNC(=O)OC(C)(C)C)CC1 (stereo not shown) [VKT-009-A] | 0.4 | 0.4 | 0.57 | – | – | – | – | – | – | – | – | – | – | – | – | – | – | – | –
6 | CNC(=O)CN1CCC(Nc2cc3c4ccc(F)cc4nn3cn2)CC1 [VKT-031] | 50 | 50 | 50 | – | – | – | – | – | – | – | – | – | – | – | – | – | – | – | –
7 | NCC1CCC(Nc2cc3c4ccc(F)cc4nn3cn2)CC1 (stereo not shown) [VKT-002] | 2 | 2 | 7.42 | 10 | 10 | 20.8 | – | 2 | 2 | 7.9 | 10 | 10 | 24.4 | 1.78 | 2 | 4.44 | 10 | 21.2 | 6.69
8 | Fc1ccc2c(c1)nn1cnc(NC3CCSCC3)cc21 [VKT-017] | 10 | 10 | 21.4 | 50 | 50 | 50 | – | 10 | 10 | 37.1 | 50 | 50 | 50 | 23.4 | 41.5 | 10 | 10 | 46.7 | 50
9 | Fc1ccc2c(c1)nn1cnc(NC3COCCOC3)cc21 [VKT-016] | 10 | 10 | 48.5 | – | – | – | – | – | – | – | – | – | – | – | – | – | – | – | –
10 | CC(C)(C)OC(=O)N[C@H]1CCC(Nc2cc3c4ccc(F)cc4nn3cn2)C1 (stereo partly shown) [VKT-035] | 2 | 2 | 8.14 | 10 | 10 | 15.9 | – | 2 | 2 | 7.6 | 10 | 10 | 17.7 | 10 | 10 | 10 | 10 | 17.5 | 31.9
